Like-named read-outs stand apart in the source and are kept apart here.
How the values were obtained:
[1] = tested on: SF-295 (CNS cancer cell line); test: NCI-60 single-dose assay; type: cell-based, human
Outline: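 Cytotoxicity was screened at a single dose across the NCI-60 human tumour cell panel, which covers leukemia, melanoma and lung, colon, CNS, ovarian, renal, prostate and breast cancers.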

[2] = tested on: HL-60(TB) (leukemia cell line); test: NCI-60 five-dose assay; type: cell-based, human; conditions: Homo sapiens, five doses (10^−4–10^−8 M), read-out: Growth inhibition 50 (GI50)
[3] = tested on: K-562 (leukemia cell line); test: NCI-60 five-dose assay; type: cell-based, human; conditions: Homo sapiens, K562, five doses (10^−4–10^−8 M), read-out: Growth inhibition 50 (GI50)
[4] = tested on: MOLT-4 (leukemia cell line); test: NCI-60 five-dose assay; type: cell-based, human; conditions: Homo sapiens, five doses (10^−4–10^−8 M), read-out: Growth inhibition 50 (GI50)
[5] = tested on: RPMI-8226 (leukemia cell line); test: NCI-60 five-dose assay; type: cell-based, human; conditions: Homo sapiens, five doses (10^−4–10^−8 M), read-out: Growth inhibition 50 (GI50)
[6] = tested on: SR (leukemia cell line); test: NCI-60 five-dose assay; type: cell-based, human; conditions: Homo sapiens, five doses (10^−4–10^−8 M), read-out: Growth inhibition 50 (GI50)
[7] = tested on: HCC-2998 (colon cancer cell line); test: NCI-60 five-dose assay; type: cell-based, human; conditions: Homo sapiens, five doses (10^−4–10^−8 M), read-out: Growth inhibition 50 (GI50)
[8] = tested on: SF-295 (CNS cancer); test: NCI-60 five-dose assay; type: cell-based; conditions: Homo sapiens, five-dose screen
[9] = tested on: Colon Cancer panel; test: NCI-60 five-dose assay, panel-level GI50 (mean graph midpoint, range); type: cell-based, human; conditions: Homo sapiens
Procedure: (§1) Due to these preliminary results, six compounds, 1, 5, 10, 11, 17, and 20, were selected for the five-dose screen NCI-programme against the same panel of tumour cell lines.
(§2) Next, a mean graph midpoint (MG_MD) was calculated for compounds 1, 5, 10, 11, 17, and 20 and reported as waterfall graphs GI50, TGI, and LC50 in the Supplementary Materials (Figures S69–S86). In Table 9, we reported the average GI50 for the nine-cancer panels, underlining both the activity and selectivity for compounds 1, 10, 11, and 20.

[10] = tested on: Leukemia panel; test: as above; type: cell-based, human; conditions: Homo sapiens
Procedure: as §1, §2

[11] = tested on: Melanoma panel; test: as above; type: cell-based, human; conditions: Homo sapiens
Procedure: as §1, §2

[12] = tested on: Breast Cancer panel; test: NCI-60 five-dose assay, panel-level GI50 (mean graph midpoint); type: cell-based, human; conditions: Homo sapiens; Breast Cancer panel average; read-out: GI50 mean graph midpoint (MG_MID)
Procedure: as §1, §2

[13] = tested on: CNS Cancer panel; test: as above; type: cell-based, human; conditions: Homo sapiens; CNS Cancer panel average; read-out: GI50 mean graph midpoint (MG_MID)
Procedure: as §1, §2

[14] = tested on: Non-Small Cell Lung Cancer panel; test: as above; type: cell-based, human; conditions: Homo sapiens; Non-Small Cell Lung Cancer panel average; read-out: GI50 mean graph midpoint (MG_MID)
Procedure: as §1, §2

[15] = tested on: Ovarian Cancer panel; test: as above; type: cell-based, human; conditions: Homo sapiens; Ovarian Cancer panel average; read-out: GI50 mean graph midpoint (MG_MID)
Procedure: as §1, §2

[16] = tested on: Prostate Cancer panel; test: as above; type: cell-based, human; conditions: Homo sapiens; Prostate Cancer panel average; read-out: GI50 mean graph midpoint (MG_MID)
Procedure: as §1, §2

[17] = tested on: Renal Cancer panel; test: as above; type: cell-based, human; conditions: Homo sapiens; Renal Cancer panel average; read-out: GI50 mean graph midpoint (MG_MID)
Procedure: as §1, §2

[18] = tested on: NCI cancer panel (all cell lines); test: NCI-60 five-dose assay, overall mean graph midpoint (MG_MID); type: cell-based, human; conditions: Homo sapiens
Procedure: as §1, §2

[19] = tested on: M14 (melanoma cell line); test: NCI-60 five-dose assay; conditions: for GI50 / CC50: Homo sapiens; for GI50: M14, read-out: Growth inhibition 50 (GI50); for CC50: M14, read-out: LC50 (molar concentration leading to 50% net cell death); for TGI (molar concentration giving total growth inhibition): M14
[20] = tested on: MDA-MB-435 (melanoma cell line); test: NCI-60 five-dose assay; conditions: for GI50 / CC50: Homo sapiens; for GI50: MDA-MB-435, read-out: Growth inhibition 50 (GI50); for CC50: MDA-MB-435, read-out: LC50 (molar concentration leading to 50% net cell death); for TGI (molar concentration giving total growth inhibition): MDA-MB-435
[21] = tested on: SK-MEL-28 (melanoma cell line); test: NCI-60 five-dose assay; conditions: for GI50: SK-MEL-28, read-out: Growth inhibition 50 (GI50)
[22] = tested on: SK-MEL-5 (melanoma cell line); test: NCI-60 five-dose assay; conditions: for GI50: SK-MEL-5, read-out: Growth inhibition 50 (GI50); for TGI (molar concentration giving total growth inhibition): SK-MEL-5
[23] = tested on: UACC-62 (melanoma cell line); test: NCI-60 five-dose assay; conditions: for GI50: UACC-62, read-out: Growth inhibition 50 (GI50); for TGI (molar concentration giving total growth inhibition): UACC-62
[24] = Colon Cancer panel average, read-out: GI50 mean graph midpoint (MG_MID)
[25] = Leukemia panel average, read-out: GI50 mean graph midpoint (MG_MID)
[26] = Melanoma panel average, read-out: GI50 mean graph midpoint (MG_MID)
[27] = five-dose screen, number of cell lines as named in the sentence, read-out: GI50, range over melanoma cell lines
[28] = MG_MID over all panels, read-out: GI50 mean graph midpoint (MG_MID)

| SMILES | GI50 [2] [µM] | GI50 [3] [µM] | GI50 [4] [µM] | GI50 [5] [µM] | GI50 [6] [µM] | GI50 [7] [µM] | GI50 [9, 24] [µM] | GI50 [10, 25] [µM] | GI50 [11, 26] [µM] | GI50 [11, 27] [µM] | GI50 [12] [µM] | GI50 [13] [µM] | GI50 [14] [µM] | GI50 [15] [µM] | GI50 [16] [µM] | GI50 [17] [µM] | GI50 [18, 28] [µM] | GI50 [19] [µM] | CC50 [19] [µM] | TGI (molar concentration giving total growth inhibition) [19] [µM] | further results |
| --- | --- | --- | --- | --- | --- | --- | --- | --- | --- | --- | --- | --- | --- | --- | --- | --- | --- | --- | --- | --- | --- |
| CCN1CCC[C@H]1CNC(=O)c1[nH]c2c(c1Cl)CCCc1ccccc1-2 [Compound 1, (S)-3-Chloro-N-(1-ethyl-2-pyrrolidinylmethyl)-5,6-dihydro-4H-benzo[6,7]cyclohepta[1,2-b]pyrrol-2-carboxamide] | 2.6 | 1.76 | 3.57 | 2.29 | 2.29 | 2.98 | 2.34 | 2.81 | 2.14 | 1.54 to 2.03 | 4.47 | 4.79 | 7.24 | 2.29 | 8.13 | 5.25 | 4.26 | 2.03 | 9.12 | 4.36 | growth inhibition (GI%) and cytotoxicity (negative values) ([1]; human): −24.35%; GI50 [8]: 1.89 µM; GI50 ([9]; five-dose screen, read-out: GI50, range over colon cancer cell lines): 1.8 to 3.12 µM; GI50 ([10]; Leukemia panel, read-out: average GI50 (mean graph midpoint)): 2.82 µM; GI50 ([10]; five-dose screen, cell lines as named in the sentence, read-out: GI50, range over leukemia cell lines): 1.76 to 5.96 µM; GI50 ([18]; all cell lines, read-out: MG_MID Log10 GI50 (converted)): 4.79 µM; GI50 [20]: 1.76 µM; CC50 [20]: 5.62 µM; TGI (molar concentration giving total growth inhibition) [20]: 3.55 µM; GI50 ([21]; Homo sapiens): 1.87 µM; CC50 ([21]; Homo sapiens, SK-MEL-28, read-out: LC50 (molar concentration leading to 50% net cell death)): 7.24 µM; GI50 ([22]; Homo sapiens): 1.68 µM; CC50 ([22]; Homo sapiens, SK-MEL-5, read-out: LC50 (molar concentration leading to 50% net cell death)): 5.62 µM; TGI (molar concentration giving total growth inhibition) [22]: 3.09 µM; GI50 ([23]; Homo sapiens): 1.87 µM; CC50 ([23]; Homo sapiens, UACC-62, read-out: LC50 (molar concentration leading to 50% net cell death)): 8.32 µM; TGI (molar concentration giving total growth inhibition) [23]: 3.98 µM |
| O=C(NCCCN1CCN(c2ccccc2)CC1)c1cc2c([nH]1)-c1ccccc1CCC2 [Compound 10, N-(3-(4-Phenylpiperazin-1-yl)propyl)-1,4,5,6-tetrahydrobenzo[6,7]cyclohepta[1,2-b]pyrrole-2-carboxamide] | 5.58 | 2.58 | 4.97 | 3 | 2.29 | 2.51 | 3.98 | 2.95 | 4.07 | 1.65 to 2.78 | 8.32 | 17 | 9.33 | 12.3 | 6.61 | 8.71 | 7.24 | 2.78 | 44.7 | 8.51 | growth inhibition (GI%) and cytotoxicity (negative values) ([1]; SF-295, single-dose assay): 90.84%; GI50 [20]: 7.88 µM; CC50 [20]: 40.7 µM; TGI (molar concentration giving total growth inhibition) [20]: 18.62 µM; GI50 ([21]; Homo sapiens): 2.51 µM; TGI (molar concentration giving total growth inhibition) ([21]; SK-MEL-28): 8.51 µM; GI50 ([22]; Homo sapiens): 2.71 µM; TGI (molar concentration giving total growth inhibition) [22]: 9.77 µM; GI50 ([23]; Homo sapiens): 9.02 µM; TGI (molar concentration giving total growth inhibition) [23]: 25.12 µM |

From publication PMC12566046, “Arylpiperazinyl-Benzocycloheptapyrrole-Carboxamides Endowed with Dual Anticancer and Antiviral Activities” (Molecules, 2025)
